Reference: publication PMC13242511, “Disrupting Notch signalling by a small molecule inhibiting dihydroorotate dehydrogenase activity” (Scientific Reports, 2026)
Read-outs that look alike come from different tables or passages of the source.

Columns and labels:
Type in all cases: cell-based
[1] = tested on: T-ALL and breast cancer cell lines; experiment: Growth inhibition in tumour cell lines (panel, cell lines not named singly); design: key to tumor cell growth: + indicates that the compound had an effect; -: − indicates that there was no significant effect in the respective assay; settings: for IC50: six days, read-out: IC50, metabolic activity; for viability assay: overview in comparison to compound C, Supplemental Fig. 9; for tumor cell growth: summary Fig. 8E
From the text: We next investigated whether compounds A-E affected growth and viability of cell lines from T-cell acute lymphoblastic leukaemia (T-ALL) and breast cancer, two tumour types in which elevated Notch signalling has been implicated in tumorigenesis. […] When testing analogues of compounds B and C, five of the seven B analogues and one of the two C analogues produced dose–response curves and IC50s, which however were higher compared to the original hits (Supplemental Fig. 5A; IC50s are presented in Supplemental Table 6).
Compounds were spotted on white 384-well tissue culture plates (Greiner, cat #781080) using an Echo 525 Acoustic liquid handler (Labcyte). Cells were grown to 80% confluence, detached if required, counted and 20 µl containing 2000–4000 cells per well was then seeded in each well and cultivated for three (4,000 cells seeded) and six days (2,000 cells seeded). […] Luciferase activity (reading out metabolic activity) was determined using the CellTiter-Glo 2.0 kit (CTG, Promega, cat #G9242) following the manufacturer’s instructions and luminescence was measured on a SpectraMaxi3 or Varioscan plate reader (Molecular Devices, Thermofisher).

[2] = tested on: MDA-MB-231 cells; experiment: Three dose response gene expression analysis (qRT-PCR); settings: 0.1, 1 and 10 µM, 24 h
Protocol: (§1) Total RNA from cell lines was isolated using the RNeasy Mini kit (cat #74104, Qiagen), according to the manufacturer’s instructions. qRT-PCR was performed as described elsewhere[51] with some minor modifications: RNA was reverse transcribed to cDNA using iScript Reverse Transcription Supermix (cat # 1708841, Bio-rad). cDNA was then diluted 1:5 in nuclease free H20. qRT-PCR was performed on a C1000 Touch thermal cycler (Bio-rad) and gene expression was detected with SsoAdvanced Universal SYBR Green Supermix (cat # 1725274, Bio-rad). Gene expression was determined by normalizing to GAPDH mRNA expression levels and fold expression change was calculated using the ΔΔCT method (ΔΔCT = ΔCt sample − Δct control). Primers used in qPCR are shown in Supplemental Table 9.
(§2) Adherent breast cancer cells were seeded in 24-well cell culture plates (ThermoFisher, Nunc, Delta surface, cat #144530) and T-ALL cells growing in suspension (Jurkat, RPMI-8402) were seeded in non-adherent 24-well plates (ThermoFisher, Nunc, cat […]). 60.000 cells were seeded and treated with 0.1, 1 and 10 µM of each compound. […] Cells were harvested 24 h post treatment and RNA isolation and gene expression analysis (qRT-PCR) was performed as described above.

[3] = tested on: T-ALL cells (Jurkat, RPMI-8402); experiment: as above; settings: 0.1, 1 and 10 µM, 24 h; for HES1 and c-MYC expression: T-ALL cells; for c-MYC expression: T-ALL cell lines
Protocol: as §1, §2

[4] = tested on: Notch downstream genes in tumour cell lines; experiment: Three dose response gene expression analysis (qRT-PCR), panel of cell lines; design: key to gene expression: + indicates that the compound had an effect; -: − indicates that there was no significant effect in the respective assay; settings: for Notch targets: overview in comparison to compound C, Supplemental Fig. 9; for gene expression: summary Fig. 8E
Protocol: as §1, §2

IC50 ([1]; Homo sapiens, the other breast cancer cell lines (other than MDA-MB-468)) | IC50 ([1]; all cell lines (breast cancer)) | SMILES | viability assay [1] | tumor cell growth [1] | HES4 expression [2] | c-MYC expression [2] | HES1 and c-MYC expression [3] | Notch targets [4] | gene expression [4] | HES1 expression [2] | transcript levels of the Notch ligand Jagged1 [2] | c-MYC expression [3] | HES1 and HES4 target gene expression ([4]; across the panel of cell lines)
> 10 µM |  | COc1cccc(CNc2ccc(N3CCCCC3)cc2)c1OCc1cccs1 [compound C] | context specific | + | upregulated | downregulation | dose-dependent downregulation | condition dependent | + |  |  |  | 
 | > 10 µM | CCc1c(C(=O)N(C)Cc2cnn(C(C)C)c2)[nH]c2ccccc12 [compound A] |  | - | reduced |  |  |  | - | downregulated | reduced |  | 
 |  | CC(C)(C(=O)NCC(F)(F)C(F)(F)F)C(=O)N[C@@H]1C(=O)Nc2ccccc2-c2ccccc21 [RO4929097, reference compound] | context specific |  |  | did not reduce |  | condition dependent |  |  |  | consistently reduced | consistently reduced
 | > 10 µM | NC(=O)c1c(NC(=O)NCc2cccnc2)sc2c1CCC2 [compound D] |  | - | reduced |  | dose-dependent downregulation |  | + | downregulated | reduced |  | 
 |  | C[C@H](NC(=O)Cc1cc(F)cc(F)c1)C(=O)N[C@H](C(=O)OC(C)(C)C)c1ccccc1 [DAPT, reference compound] | context specific |  |  |  |  |  |  |  |  |  | 
 |  | Cc1ccc2[nH]c3c(c2c1)CCOC31CCN(Cc2ccccc2-c2ccccc2)CC1 [compound B] |  | + | reduced |  | dose-dependent downregulation |  | + |  | reduced |  | 
 | > 10 µM | Cc1nn(-c2nc3ccccc3s2)c(O)c1C1OC(=O)c2ccccc21 (stereo not drawn) [compound E] |  | - |  |  | dose-dependent downregulation |  | + | downregulated | reduced |  | 
 |  | CC(C)(C)c1ccc(Oc2ccc(N)cn2)cc1 [CB-103, reference compound] | context specific |  |  | trend towards upregulation |  | condition dependent |  |  |  | reduced | 
